{
  "source": "patent US9023857B2",
  "about": "“Substituted 6-(2-aminobenzylamino)purine derivatives, their use as medicaments and preparations containing these compounds” (Univerzita Palackeho V Olomouci, priority 2009, dated 2015)",
  "key": {"[1]": {"system": "MV", "assay": "MV syncytium reduction assay in B95a cells", "assay_type": "cell-based, Measles virus wildtype strain WTFb"}, "[2]": {"system": "HAd4", "assay": "HAd4 yield reduction assay (multiple step growth curve) in A549 cells", "conditions": "culture medium; combination: until 72 hours after infection"}, "[3]": {"system": "human T-lymphoblastoid leukaemic cell line CEM", "assay": "In vitro cytotoxic activity (Calcein AM, 72 hours), CEM", "conditions": "read-out: Cytotoxicity IC50 CEM"}, "[4]": {"system": "p21^WAF1 protein in MCF-7 cells", "assay": "Induction of p21^WAF1 protein in MCF-7 cells (immunoblotting)", "assay_type": "cell-based, human", "method": "(a) DO-1, DO-2 and 1801 monoclonal antibodies recognise the N-terminal region of p53 protein, monoclonal antibodies DO-11 and DO-12 recognise different epitopes in the core domain of p53 protein, monoclonal antibodies Bp53-10 and Pab421 recognise the C-terminal region of p53 protein. (b) Monoclonal antibody 118 recognises p21^WAF1.\nFor direct immunoblotting, total cellular protein lysates were prepared by harvesting cells in hot Laemmli electrophoresis sample buffer. Proteins were then separated by SDS-polyacrylamide gel electrophoresis (SDS-PAGE) on 10% gel and transferred onto a nitrocellulose membrane in Bio.Rad Mini Trans-Blott Electrophoretic Transfer Cell for 2 hrs at 4° C. applying 150 mA in transfer buffer ([…], 190 mM glycine and 20% methanol). Prestained molecular weight markers (Bio-Rad) were run in parallel. The blotted membranes were blocked in 5% milk and 0.1% Tween 20 in PBS for 2 hrs and probed overnight with monoclonal antibodies. After washing 3 times in PBS plus 0.1% Tween 20, peroxidase conjugated rabbit anti-mouse immunoglobulin antiserum (Dako, Denmark) diluted 1:1000 was used as the secondary antibody. To visualise peroxidase activity, ECL reagents from […] were used according to the manufacturer instructions.\nMCF7-DDp53 cell line was derived from MCF-7 parental cell line by stable […] with plasmid pCMVneonDDp53 coding for dominant negative truncated mouse p53 protein including amino acid residues 1-14 and 302-390 under the control of at the CMV promoter. The control cell line MCF-7neo was derived by transfecting MCF-7 cells with pCMVneo vector. Transfections were performed using the Effectene transfection reagent (QIAGEN, Germany) as recommended by the supplier. Stable transfectants were selected at 2 mg/ml G418 sulphate (Life Technologies). The expression of Ddp53 miniprotein in MCF-7Ddp53 cell line has been examined by immunoblotting with Bp53-10 monoclonal antibody. Independently isolated MCF-7Dp53 clones 9, 12 and 14 expressing high levels of Ddp53 miniprotein and MCF-7-neo clones 3, 4 and 7 were used. […]"}, "[5]": {"system": "SV40 large T-antigen in COS-1 cells", "assay": "Expression from SV40 promoter incorporated in the cellular genome (COS-1 cells)", "assay_type": "cell-based", "conditions": "COS-1 cells (FIG. 10)", "method": "Cell were detached with rubber policeman and washed three times with ice-cold PBS and lysed in buffer (50 mM Tris, pH 7.4, 250 mM NaCl, 5 mM EDTA, 50 mM NaF, 1 mM Na3VO4, 1% Nonidet P40) containing mixture of protease and phosphatase inhibitors (Sigma-Aldrich St Louis, Mo., USA). 20 μg of total proteins were separated by SDS-polyacrylamide gel electrophoresis (SDS-PAGE) on 8% or 10% gels and transferred onto nitrocellulose membranes. Membranes were blocked in 5% milk and 0.1% Tween 20 in PBS and probed overnight with specific monoclonal antibodies or rabbit polyclonal sera. Primary antibodies specific for RNA polymerase II (all from Santa Cruz Biotechnology, California, USA) included: (i) N-20 used at […] (ii) H14, specific for form phosphorylated at phosphoserine 5, used at 6 μg/ml and (iii) H5, specific for form phosphorylated at phosphoserine 2 used at 4 μg/ml. Additional primary mAb used in immunblots included (iv) anti-p53 (D0-1, in house, […]) used at 1 μg/ml, (v) anti-p21^WAF1 (118, in house), used at 1 μg/ml), (vi) anti-actin (A-2066, Sigma-Aldrich St Louis, Mo., USA) used at 1 μg/ml, (vii) anti-T-antigen (419, in house, Lane), used at 1 μg/ml. All primary antibodies were diluted in PBS containing 5% powdered milk; 0.1% Tween 20. […]"}, "[6]": {"system": "HSV-2", "assay": "Plaque number reduction assay, HSV-2 on HFFF", "assay_type": "cell-based, HSV-2 strain HG52"}, "[7]": {"system": "A549 lung adenocarcinoma xenograft", "assay": "In vivo anticancer activity, human xenograft model of A549 lung adenocarcinoma"}, "[8]": {"system": "HSV-1", "assay": "Plaque number reduction assay, HSV-1 on HFFF", "assay_type": "cell-based, Herpes simplex virus type 1 strain 17"}, "[9]": {"system": "human erythroleukaemia K562", "assay": "In vitro cytotoxic activity (Calcein AM, 72 hours), K562", "conditions": "K562, 72 h, read-out: Cytotoxicity IC50 K-562"}, "[10]": {"system": "HIV promoter integrated into cellular DNA (H1299-HIV cells)", "assay": "β-galactosidase expression from pHIV-lacZ incorporated to cellular genome (H1299-HIV)", "conditions": "HIV promoter integrated into cellular DNA (FIG. 11)"}},
  "data": [
    {"smiles": "CCC(CO)Nc1nc(NCc2ccccc2N)c2ncn(C(C)C)c2n1", "note": "(centres unmarked) [Compound 105, 2-({6-[(2-aminobenzyl)amino]-9-isopropyl-9H-purin-2-yl}amino)butan-1-ol]", "values": [
      {"measurement": "inhibition of virus replication (in words)", "setting": "[1]", "value": "ineffective"},
      {"measurement": "appearance of extracellular virus", "setting": "[2]", "value": "considerably delayed"},
      {"measurement": "IC50", "setting": "[3]", "value": 4.5, "unit": "µM"},
      {"measurement": "p21^WAF1 level", "setting": "[4]; MCF7 cells treated for 24 h, immunoblot (FIG. 2)", "value": "Induction"},
      {"measurement": "p21^WAF1 induction", "setting": "[4]; MCF-7Ddp53 clones (dominant-negative Ddp53 miniprotein)", "value": "no p21^WAF1 induction"},
      {"measurement": "time at which enhanced level of p21^WAF1 protein was observed", "setting": "[4]; MCF-7 cells", "value": 12, "unit": "h"},
      {"measurement": "large T-antigen expression", "setting": "[5]", "value": "stimulated large T-antigen expression"},
      {"measurement": "inhibition of virus replication (in words)", "setting": "[6]", "value": "inhibited replication"},
      {"measurement": "tolerability in animals", "setting": "[7]; CD-1 SCID mice, orally twice daily 150 mg/kg, Days 1-3 and 7-9", "value": "good tolerability"},
      {"measurement": "tumor volume analysis", "setting": "[7]; CD-1 SCID mice, orally twice daily 150 mg/kg, P=0.0409 versus vehicle", "value": "significantly smaller tumors"},
      {"measurement": "mean survival time", "setting": "[7]; as printed in the A549 tumor volume paragraph", "value": 15.4, "unit": "days"},
      {"measurement": "inhibition of virus replication (in words)", "setting": "[8]", "value": "inhibited replication"},
      {"measurement": "IC50", "setting": "[9]", "value": 12.8, "unit": "µM"},
      {"measurement": "increase of reporter readout", "setting": "[10]", "value": 4, "unit": "times"}
    ]}
  ]
}
